The text below walks through data of ChEMBL document CHEMBL1201862, “PubChem BioAssay data set” (2004).

The source made the active and inactive calls.

One experiment concerns the target Protein Tat (Human immunodeficiency virus type 1 group M subtype B (isolate HXB2)(HIV-1), UniProt P04608). The class given is functional.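 Note: tat binding to TAR RNA read out by fluorescence polarization.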
Experiment [1] in a line: Luminescence Cell-Based Dose Response HTS to Identify Activators of Luciferase Translation or Activity in H4 […] Cells. [Related pubchem assays: 1829 (Project Summary), 1814 (Primary HTS)]. The class given is functional.
Another experiment has as its system H4. Put plainly: Luminescence Cell-Based Dose Response HTS to Identify Activators of 5'UTR Stem-Loop Driven Prion Protein mRNA Translation in H4 Neuroglioblastoma Cells. [Related pubchem assays: 1829 (Project Summary), 1814 (Primary HTS)]. The note with it: Homo sapiens. The class given is functional.
The target of experiment [2] is T1, Replicative DNA helicase DnaB (Mycobacterium tuberculosis, UniProt P9WMR3).
T1 sequence (P9WMR3 whole entry): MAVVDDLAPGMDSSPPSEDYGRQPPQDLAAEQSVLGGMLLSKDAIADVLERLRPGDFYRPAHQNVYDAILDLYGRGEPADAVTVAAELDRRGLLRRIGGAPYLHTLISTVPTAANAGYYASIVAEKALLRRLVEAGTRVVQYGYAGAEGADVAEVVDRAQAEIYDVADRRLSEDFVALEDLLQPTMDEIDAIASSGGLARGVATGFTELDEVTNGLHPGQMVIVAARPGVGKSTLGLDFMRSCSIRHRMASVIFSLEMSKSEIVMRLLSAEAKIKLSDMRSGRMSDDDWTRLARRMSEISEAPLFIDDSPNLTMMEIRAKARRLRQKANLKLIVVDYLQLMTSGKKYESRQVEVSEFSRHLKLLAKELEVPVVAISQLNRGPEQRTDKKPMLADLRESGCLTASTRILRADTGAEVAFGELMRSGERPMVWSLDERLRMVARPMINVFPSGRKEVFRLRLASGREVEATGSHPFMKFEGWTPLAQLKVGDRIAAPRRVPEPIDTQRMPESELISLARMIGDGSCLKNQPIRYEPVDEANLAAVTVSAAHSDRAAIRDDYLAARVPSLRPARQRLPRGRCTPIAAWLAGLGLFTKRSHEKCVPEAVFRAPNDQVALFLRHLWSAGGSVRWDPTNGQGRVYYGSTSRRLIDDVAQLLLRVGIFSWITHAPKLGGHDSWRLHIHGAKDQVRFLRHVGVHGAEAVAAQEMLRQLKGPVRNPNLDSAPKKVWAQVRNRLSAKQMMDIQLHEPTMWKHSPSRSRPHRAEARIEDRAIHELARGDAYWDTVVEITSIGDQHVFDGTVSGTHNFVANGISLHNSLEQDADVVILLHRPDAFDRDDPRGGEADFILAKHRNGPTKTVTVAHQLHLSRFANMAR
Put plainly: DnaB intein splicing inhibitors, dose response, biochemical, cell-free fluorescence (AID 449749). The class given is functional.

The next experiment concerns Vero. Put plainly: viability of Vero cells under compound – cytotoxicity control for flavivirus capping enzyme inhibitors (AID 588742). The note with it: Chlorocebus sabaeus. The class given is functional.
The next experiment deals with T2, Protein RecA (Mycobacterium tuberculosis, UniProt P9WHJ3).
T2 sequence (P9WHJ3 whole entry): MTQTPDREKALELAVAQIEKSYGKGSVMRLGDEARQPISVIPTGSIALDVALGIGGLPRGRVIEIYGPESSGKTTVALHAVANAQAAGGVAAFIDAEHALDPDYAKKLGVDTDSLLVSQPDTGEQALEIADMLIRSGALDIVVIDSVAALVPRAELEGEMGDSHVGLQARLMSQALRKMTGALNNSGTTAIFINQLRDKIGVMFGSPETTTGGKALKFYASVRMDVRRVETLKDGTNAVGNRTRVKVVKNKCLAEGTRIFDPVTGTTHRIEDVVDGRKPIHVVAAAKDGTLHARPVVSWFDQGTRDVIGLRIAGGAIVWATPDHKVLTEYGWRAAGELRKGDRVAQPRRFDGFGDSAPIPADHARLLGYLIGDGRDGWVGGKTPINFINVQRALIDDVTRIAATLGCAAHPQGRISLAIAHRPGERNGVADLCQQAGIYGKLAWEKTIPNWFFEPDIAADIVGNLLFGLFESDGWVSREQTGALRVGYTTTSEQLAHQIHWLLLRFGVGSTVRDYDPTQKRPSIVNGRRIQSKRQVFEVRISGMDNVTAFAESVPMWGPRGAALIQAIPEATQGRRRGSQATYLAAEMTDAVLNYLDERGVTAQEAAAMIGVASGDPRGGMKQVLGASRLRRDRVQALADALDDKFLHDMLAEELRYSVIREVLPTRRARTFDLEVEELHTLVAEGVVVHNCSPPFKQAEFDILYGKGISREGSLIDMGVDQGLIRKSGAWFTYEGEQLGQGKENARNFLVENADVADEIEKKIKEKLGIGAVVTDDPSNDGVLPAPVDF
Kind of experiment: Fluorescence Cell-Free Homogeneous Dose Retest to Identify Inhibitors of RecA-Intein Splicing Activity. [Related pubchem assays (depositor defined):AID2097, AID2223, AID489010, AID492950]. The class given is functional.

A further experiment addresses Genome polyprotein (dengue virus type 2, UniProt P29990). Kind of experiment: flavivirus cap methylation enzyme inhibition – biochemical, confirmation dose response, primary screen (AID 588689). The class given is functional.
In experiment [3] the target is T3, Long-chain-fatty-acid--AMP ligase FadD28 (Mycobacterium tuberculosis, UniProt P9WQ59).
T3 sequence (P9WQ59 whole entry): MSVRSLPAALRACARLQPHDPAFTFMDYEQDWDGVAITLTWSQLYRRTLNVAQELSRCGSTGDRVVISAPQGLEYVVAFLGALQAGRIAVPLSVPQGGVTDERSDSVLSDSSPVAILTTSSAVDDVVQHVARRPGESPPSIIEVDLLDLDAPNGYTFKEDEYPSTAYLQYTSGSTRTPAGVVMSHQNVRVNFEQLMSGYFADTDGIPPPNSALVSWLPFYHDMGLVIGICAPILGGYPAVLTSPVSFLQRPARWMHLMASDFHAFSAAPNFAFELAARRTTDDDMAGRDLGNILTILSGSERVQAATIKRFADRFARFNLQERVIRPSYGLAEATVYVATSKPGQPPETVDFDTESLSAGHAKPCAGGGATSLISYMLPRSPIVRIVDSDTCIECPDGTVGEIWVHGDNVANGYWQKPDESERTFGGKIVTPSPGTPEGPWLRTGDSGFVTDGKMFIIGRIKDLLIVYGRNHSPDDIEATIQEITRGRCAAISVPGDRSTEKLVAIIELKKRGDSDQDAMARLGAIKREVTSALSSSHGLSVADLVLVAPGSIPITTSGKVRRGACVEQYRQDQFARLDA
Kind of experiment: Fluorescence polarization aasay to screen for inhibitors that compete for the binding of FadD28 to a bisubstrate Measured in Biochemical System Using Plate Reader - 2147-01_Inhibitor_Dose_CherryPick_Activity. The class given is functional, Mycobacterium tuberculosis H37Rv. In general terms: Fluorescence polarisation rises when a labelled molecule tumbles more slowly, as on binding a larger partner.

The next experiment deals with Paired box protein Pax-8 (Homo sapiens, UniProt Q06710). Put plainly: PAX8 transcriptional activity inhibition in RMG-I – RMG-I cells, luciferase, cherry-pick, dose response (AID 687027).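 Note: luciferase reporter driven by Pax8 target thyroperoxidase promoter measured by SteadyGlo luminescence.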 The class given is functional, cell-based.
Experiment [4] can be described thus: inhibitors acting on PAX2 in cells – cell-based, plate reader, dry powder samples, selectivity assay for PAX8 inhibitor project, dose response (AID 743048).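 Note: HEK293 cells carrying a WT1 promoter luciferase reporter driven by expressed Pax2; potency is for inhibition of Pax2 driven reporter signal.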 The class given is functional.
The nature of experiment [5]: COV362 cell viability loss – plate reader, dry powder, SA12, cytotoxicity control for PAX8 inhibitor project, dose response (AID 743144). The class given is functional, cell-based.
Experiment [6] is described as follows: toxicity toward immortalized ovarian surface epithelium – cell-based, plate reader, dry powder samples, cytotoxicity control for PAX8 inhibitor project, dose response (AID 743045). The class given is functional.
Experiment [7] in a line: A2780 cell killing – plate reader, dry powder samples, cytotoxicity control, dose response (AID 743046). The class given is functional, cell-based.
Experiment [8] can be described thus: OVCAR-3 cell viability loss – plate reader, dry powder samples, PAX8 inhibitor project, dose response (AID 743044). The class given is functional, cell-based.
Experiment [9] in a line: PAX5 cellular inhibition readout – cell-based, plate reader, dry powder samples, selectivity assay for PAX8 inhibitor project, dose response (AID 743047).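 Note: HEK293 cells carrying a Pax5 driven CD19 promoter luciferase reporter; potency of inhibitors that lower reporter luminescence.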 The class given is functional.
A short description of experiment [10]: IGROV1 cell killing – plate reader, dry powder samples, PAX8 inhibitor project, dose response (AID 743043). The class given is functional, cell-based. The note with it: IGROV-1.
Experiment [11] is described as follows: OVCAR4 cell viability loss – plate reader, dry powder, SA11, cytotoxicity control for PAX8 inhibitor project, dose response (AID 743150). The class given is functional, cell-based. The note with it: OVCAR-4.
Experiment [12] in a line: COV434 cell viability loss – plate reader, dry powder, SA7, cytotoxicity control for PAX8 inhibitor project, dose response (AID 743145). The class given is functional, cell-based.
The nature of experiment [13]: OV-90 cell viability loss – plate reader, dry powder, SA8, PAX8 inhibitor project, dose response (AID 743149). The class given is functional, cell-based.
Experiment [14] in a line: PAX8-dependent cell viability loss – plate reader, dry powder, dose response (AID 743049). The class given is functional, cell-based.
A short description of experiment [15]: viability loss in THP-1 monocytes – THP-1 cells, cytotoxicity control for Vif-APOBEC3G degradation inhibitor project, dose response (AID 1117359). The class given is functional. The note with it: THP-1.
Experiment [16] in a line: viability loss in CEM21 cells – cell-based, CellTiter-Glo luminescence, cherry-picked, cytotoxicity control for viral fusion inhibitor project, dose response (AID 652042).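 Note: potency for signal decrease meaning cytotoxicity.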 The class given is functional. For orientation: In ATP-based viability assays light output follows the ATP content of the culture.
Experiment [17] is described as follows: A549 cell cytotoxicity, dose response, cytotoxicity control, plate reader, cherry-pick, antagonist series (AID 743412). The class given is functional, cell-based.
A short description of experiment [18]: toxicity toward HepG2 liver cells – cell-based, plate reader, cherry-pick, antagonist series, cytotoxicity control, dose response (AID 743416). The class given is functional.
Experiment [19] is described as follows: blockers of bursicon-stimulated LGR2 cAMP reporter – cell-based, HEK293, CRE-luciferase reporter, cherry pick, set 2, dose response (AID 743343).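 Note: transfected cells were stimulated with diluted bursicon conditioned medium after compound addition.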 The class given is functional. (In general: Reporter assays use an easily measured gene product as a stand-in for the process of interest.)
The nature of experiment [20]: viability loss in HepG2 hepatoma cells – cell-based, cherry-picks, set 5, cytotoxicity control, dose response (AID 1053118). The class given is functional.
Experiment [21] in a line: viability loss in A549 lung cancer cells – cell-based, cherry-picks, […], cytotoxicity control, dose response (AID 1053119). The class given is functional.
Experiment [22] can be described thus: blockade of melanocortin 4 receptor signaling – cell-based, plate reader, cherry pick, counter-screen for LGR2 antagonist project, dose response (AID 743444).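 Note: transfected HEK 293 cells stimulated with alpha-MSH peptide; potency of inhibitors of the alpha-MSH evoked signal.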 The class given is functional.
Experiment [23] in a line: viability loss in HEK293 cells – cell-based, plate reader, cherry-picked samples, cytotoxicity control, dose response (AID 743446). The class given is functional.
Experiment [24] can be described thus: Dd2 parasite growth inhibition in erythrocytes – SYBR Green, dry powder samples, set 9, dose response (AID 1159568). The class given is functional, cell-based.
Experiment [25] addresses Glutathione-S-transferase (Schistosoma japonicum, UniProt Q26513). Put plainly: GST-antibody interaction or FRET quenching – biochemical, TR-FRET, artefact control for Vif-APOBEC3G degradation inhibitor project, dose response (AID 1117362). The class given is functional.
Experiment [26] concerns the target Metabotropic glutamate receptor 7 (Homo sapiens, UniProt Q14831). Put plainly: potentiation of glutamate EC20 at mGlu7 – cell-based, calcium mobilization, Galpha15, dose response (AID 743384). The class given is functional.

Chain of Glutathione-S-transferase (Q26513 whole entry): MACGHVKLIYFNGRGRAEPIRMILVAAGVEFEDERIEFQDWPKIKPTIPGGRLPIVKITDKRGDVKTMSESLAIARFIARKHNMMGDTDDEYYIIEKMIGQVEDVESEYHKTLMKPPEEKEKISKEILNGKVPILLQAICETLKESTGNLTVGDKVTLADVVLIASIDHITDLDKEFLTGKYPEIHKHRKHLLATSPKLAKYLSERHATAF
Chain of Protein Tat (P04608 whole entry): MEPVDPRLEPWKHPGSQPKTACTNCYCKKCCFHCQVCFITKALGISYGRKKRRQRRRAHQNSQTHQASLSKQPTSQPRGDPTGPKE
Chain of Genome polyprotein (P29990 2492-3391 limits assumed): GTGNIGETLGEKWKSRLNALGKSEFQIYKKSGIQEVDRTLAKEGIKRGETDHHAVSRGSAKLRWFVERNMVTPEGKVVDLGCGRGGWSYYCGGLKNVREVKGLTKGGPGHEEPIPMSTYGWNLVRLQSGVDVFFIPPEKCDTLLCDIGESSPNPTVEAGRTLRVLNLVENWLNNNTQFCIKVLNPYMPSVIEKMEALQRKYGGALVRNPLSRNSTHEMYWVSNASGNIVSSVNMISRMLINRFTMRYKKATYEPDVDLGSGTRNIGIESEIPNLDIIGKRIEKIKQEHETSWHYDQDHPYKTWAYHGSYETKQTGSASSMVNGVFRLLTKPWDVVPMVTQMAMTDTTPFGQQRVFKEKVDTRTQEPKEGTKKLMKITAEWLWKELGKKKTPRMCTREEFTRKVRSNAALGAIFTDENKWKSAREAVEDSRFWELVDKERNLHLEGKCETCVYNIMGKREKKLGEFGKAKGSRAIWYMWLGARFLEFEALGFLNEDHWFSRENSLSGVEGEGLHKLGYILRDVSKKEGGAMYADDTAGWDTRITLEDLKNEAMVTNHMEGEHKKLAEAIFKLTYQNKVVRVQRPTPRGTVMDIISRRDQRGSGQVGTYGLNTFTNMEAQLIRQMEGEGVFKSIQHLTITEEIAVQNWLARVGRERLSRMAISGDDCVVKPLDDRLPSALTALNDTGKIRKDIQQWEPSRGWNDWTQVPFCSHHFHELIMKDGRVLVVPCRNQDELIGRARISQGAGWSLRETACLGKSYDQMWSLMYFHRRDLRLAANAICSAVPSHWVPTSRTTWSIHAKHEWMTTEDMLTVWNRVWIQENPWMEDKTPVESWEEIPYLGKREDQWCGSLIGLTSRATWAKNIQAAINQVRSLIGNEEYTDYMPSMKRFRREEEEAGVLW
Chain of Paired box protein Pax-8 (Q06710 whole entry): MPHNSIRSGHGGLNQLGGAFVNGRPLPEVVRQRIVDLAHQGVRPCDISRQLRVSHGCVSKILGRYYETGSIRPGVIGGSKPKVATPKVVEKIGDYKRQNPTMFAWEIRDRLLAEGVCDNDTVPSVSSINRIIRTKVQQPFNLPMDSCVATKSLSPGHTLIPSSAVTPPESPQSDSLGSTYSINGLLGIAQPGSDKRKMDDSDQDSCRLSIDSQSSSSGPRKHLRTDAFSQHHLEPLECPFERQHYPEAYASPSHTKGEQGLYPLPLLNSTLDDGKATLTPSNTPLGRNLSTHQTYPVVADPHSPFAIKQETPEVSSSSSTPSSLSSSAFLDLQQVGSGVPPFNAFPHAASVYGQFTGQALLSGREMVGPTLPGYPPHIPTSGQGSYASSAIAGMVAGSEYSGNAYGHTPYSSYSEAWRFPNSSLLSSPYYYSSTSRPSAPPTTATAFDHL
Chain of Metabotropic glutamate receptor 7 (Q14831 whole entry): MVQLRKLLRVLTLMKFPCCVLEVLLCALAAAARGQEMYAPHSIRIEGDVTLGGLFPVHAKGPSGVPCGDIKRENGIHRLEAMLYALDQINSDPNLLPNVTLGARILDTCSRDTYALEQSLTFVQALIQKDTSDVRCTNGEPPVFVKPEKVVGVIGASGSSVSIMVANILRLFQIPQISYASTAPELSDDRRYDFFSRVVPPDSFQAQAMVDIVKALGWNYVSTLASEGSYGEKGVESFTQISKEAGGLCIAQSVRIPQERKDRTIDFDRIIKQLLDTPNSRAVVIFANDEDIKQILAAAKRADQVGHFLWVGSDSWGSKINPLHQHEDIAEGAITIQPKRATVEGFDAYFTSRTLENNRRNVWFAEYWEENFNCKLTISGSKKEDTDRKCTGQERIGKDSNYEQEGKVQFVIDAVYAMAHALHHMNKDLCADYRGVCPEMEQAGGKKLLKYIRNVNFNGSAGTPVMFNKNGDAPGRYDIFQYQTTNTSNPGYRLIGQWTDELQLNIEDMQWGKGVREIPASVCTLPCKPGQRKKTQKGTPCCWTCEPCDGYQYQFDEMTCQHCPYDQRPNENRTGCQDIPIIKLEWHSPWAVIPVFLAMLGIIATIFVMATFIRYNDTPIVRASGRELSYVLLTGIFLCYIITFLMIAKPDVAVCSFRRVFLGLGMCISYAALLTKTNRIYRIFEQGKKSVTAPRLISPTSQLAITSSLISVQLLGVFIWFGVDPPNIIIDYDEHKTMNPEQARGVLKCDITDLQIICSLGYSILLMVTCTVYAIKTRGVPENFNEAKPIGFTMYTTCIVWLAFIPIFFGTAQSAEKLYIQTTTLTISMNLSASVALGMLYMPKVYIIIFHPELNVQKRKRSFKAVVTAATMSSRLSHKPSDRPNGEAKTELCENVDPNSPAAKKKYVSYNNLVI

As usually defined, the IC50 is the point on the concentration scale where inhibition reaches its midpoint. On to `COc1ccccc1N1C(=O)CC(Nc2ccc(N3CCOCC3)cc2)C1=O` (stereo not drawn), for which, on Protein Tat, the IC50 was 20.1 µM (inconclusive).

The EC50 is the concentration that produces a half-maximal response. The term AC50 denotes the concentration at which the activity in the assay is half-maximal. One may read the CC50 as the concentration that lowers cell viability or growth by half. Turning to `O=C(O)CCCN1C(=O)/C(=C\C(Cl)=C\c2ccccc2)SC1=S`, the EC50 was > 120 µM (not active) in [1], > 120 µM (not active) in the experiment with H4 and 16.3 µM (active) on Protein RecA. The concentration at half-maximal activity (AC50) is 9.77 µM (active) in experiment [2]; 29.7 µM (active) in experiment [3]; 2.03 µM (active) at Paired box protein Pax-8; 17.8 µM (active) in [4]; 16 µM (active) in experiment [5]; 22.9 µM (active) in experiment [6]. Also, the AC50 in [7] is 66.9 µM (active); in [8], 10.2 µM (active); in experiment [9], 13.2 µM (active); in [10] it was 9.43 µM (active); in experiment [11], 31.8 µM (active); in [12] it was 27.9 µM (active). The results for the AC50 in experiment [13] and in experiment [14] were 18.4 µM (active) and 16 µM (active), respectively. The 50% cytotoxic concentration (CC50) in the experiment with Vero was 3.6 µM (active); in experiment [15] it was 6.87 µM (active). Moreover, the IC50 on Genome polyprotein is 36.2 µM (active).

On to `O=C(C[C@@H]1C[C@@H]2c3cc(NC(=O)c4ccc5c(c4)OCO5)ccc3O[C@@H]2[C@@H](CO)O1)NCc1ccc(Oc2ccccc2)cc1`, for which the AC50 in experiment [16] was 26.1 µM (active); in [17], 21.2 µM (active); in [18], 27.7 µM (active); in experiment [19] it was 33.3 µM (active); in [20], 37.1 µM (active); in experiment [21], 30.2 µM (active). Besides, the values for the AC50 in [22], in [23] and in experiment [24] were 7.28 µM (active), 24.7 µM (active) and 5.69 µM (active), respectively.

Consider `Oc1ccccc1/C=N/c1c(-c2ccco2)nc2ccccn12`, for which the cytotoxic concentration (CC50) in the experiment with Vero is > 40 µM (active). Also, the IC50 in [25] is > 100 µM (active).

Consider `CCn1c(C)cc(C(=O)CSc2ccc(NC(C)=O)cc2)c1C`, for which the concentration giving a half-maximal response (EC50) in experiment [26] is 10 µM (active).
